# Measurements published in ChEMBL document CHEMBL1201862, “PubChem BioAssay data set” (2004).
# Where a name gives a salt, the structure may show the parent alone. Calls of active or inactive are those of the source.
# Tests used:
# cells [1] = assay type: functional, cell-based
# [2] = HEp-2 cell cytotoxicity, dose response, cytotoxicity control for RSV inhibitor project, HTS (AID 2410); assay type: functional; settings: human respiratory syncytial virus
# cells [3] = assay type: functional, cell-based; remark: listed apart in the source
# Large T antigen = Large T antigen (Simian virus 40, UniProt P03070); assay type: functional, Betapolyomavirus macacae;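 also: Confirmatory-stage PubChem screen for compounds that inhibit SV40 T antigen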
# Large T antigen, sequence (P03070 whole entry): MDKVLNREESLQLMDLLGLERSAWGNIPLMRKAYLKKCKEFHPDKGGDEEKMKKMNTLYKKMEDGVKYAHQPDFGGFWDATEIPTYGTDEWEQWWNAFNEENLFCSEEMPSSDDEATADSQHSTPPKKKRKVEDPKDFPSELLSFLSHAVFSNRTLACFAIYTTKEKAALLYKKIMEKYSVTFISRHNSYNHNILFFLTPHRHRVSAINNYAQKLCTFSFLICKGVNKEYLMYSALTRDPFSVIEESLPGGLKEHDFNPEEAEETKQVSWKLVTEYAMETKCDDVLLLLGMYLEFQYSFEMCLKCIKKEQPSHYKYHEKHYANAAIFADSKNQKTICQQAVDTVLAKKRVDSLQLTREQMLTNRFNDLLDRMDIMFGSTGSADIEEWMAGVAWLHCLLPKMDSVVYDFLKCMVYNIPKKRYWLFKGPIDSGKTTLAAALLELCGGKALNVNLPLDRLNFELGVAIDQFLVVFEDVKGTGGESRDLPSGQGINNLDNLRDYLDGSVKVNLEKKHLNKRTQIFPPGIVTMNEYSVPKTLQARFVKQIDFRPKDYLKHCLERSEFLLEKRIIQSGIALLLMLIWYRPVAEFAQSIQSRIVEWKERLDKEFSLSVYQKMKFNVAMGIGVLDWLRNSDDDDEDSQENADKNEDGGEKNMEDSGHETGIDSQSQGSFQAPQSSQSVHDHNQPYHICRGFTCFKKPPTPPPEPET
# [4] = biological target: FAD-linked sulfhydryl oxidase ALR (Homo sapiens, UniProt P55789); experiment: inhibitors of human ALR sulfhydryl oxidase, dose response, biochemical, H2O2 detection, luminescence, cherry-pick (AID 493248)
# FAD-linked sulfhydryl oxidase ALR, sequence (P55789 whole entry): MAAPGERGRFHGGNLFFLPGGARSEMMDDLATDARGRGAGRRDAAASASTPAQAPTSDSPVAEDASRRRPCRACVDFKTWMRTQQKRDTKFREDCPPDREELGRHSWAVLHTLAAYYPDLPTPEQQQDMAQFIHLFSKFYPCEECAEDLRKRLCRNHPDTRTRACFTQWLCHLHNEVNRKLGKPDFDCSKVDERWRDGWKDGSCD
# [5] = control 3'UTR Renilla luciferase suppression, dose response, counter-screen for Shn3 inhibitor project, cell-based, Clone20-Shn3RL, cherry-picked (AID 624133); assay type: functional
# [6] = Shn3 3'UTR reporter inhibitors, dose response, cell-based, Clone20 osteoblasts, firefly luciferase, cherry-picked (AID 624132); assay type: functional;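 also: firefly luciferase luminescence from reporter carrying the Shn3 3'UTR in osteoblasts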
# [7] = HepG2 cell cytotoxicity, dose response, cytotoxicity control for Shn3 inhibitor project, CellTiter-Glo, cherry-picked (AID 624134); assay type: functional, cell-based
# Protein skinhead-1 = biological target: T1, Protein skinhead-1 (Caenorhabditis elegans, UniProt P34707); assay type: functional
# T1 sequence (P34707 whole entry): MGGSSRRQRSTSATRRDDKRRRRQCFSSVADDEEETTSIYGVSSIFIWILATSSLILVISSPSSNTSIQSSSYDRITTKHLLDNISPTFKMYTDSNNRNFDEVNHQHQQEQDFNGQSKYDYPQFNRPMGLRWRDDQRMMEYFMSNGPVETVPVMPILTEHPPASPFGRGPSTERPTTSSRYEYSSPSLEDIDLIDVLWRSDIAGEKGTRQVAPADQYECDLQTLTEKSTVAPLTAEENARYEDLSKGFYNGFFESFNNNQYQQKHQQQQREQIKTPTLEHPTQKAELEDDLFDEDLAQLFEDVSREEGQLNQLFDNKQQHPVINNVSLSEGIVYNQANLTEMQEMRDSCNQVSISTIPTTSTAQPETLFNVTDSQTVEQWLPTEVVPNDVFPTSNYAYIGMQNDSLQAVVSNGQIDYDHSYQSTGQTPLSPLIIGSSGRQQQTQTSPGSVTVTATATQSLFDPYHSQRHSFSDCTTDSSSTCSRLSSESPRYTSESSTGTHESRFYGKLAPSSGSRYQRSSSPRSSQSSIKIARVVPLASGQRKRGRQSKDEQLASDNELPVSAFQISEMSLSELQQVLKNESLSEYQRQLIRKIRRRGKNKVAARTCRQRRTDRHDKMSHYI
# [8] = cytotoxicity toward NIH3T3 fibroblasts, dose response, counter-screen, cell-based, ATP luminescence, mouse fibroblasts (AID 2010); assay type: functional; settings: NIH3T3;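 also: cells exposed to compound for about 90 hours before reading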
# [9] = inhibitors of intracellular T. cruzi replication, confirmation, NIH3T3 host cells, beta-gal luminescence (AID 2044); assay type: functional, cell-based;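 also: intracellular parasites grown in NIH/3T3 mouse fibroblasts as host cells; luminescent beta-galactosidase reporter signal from transgenic T. cruzi replicating inside host cells; inhibitors lower the luminescence signal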
# [10] = Luminescence Cell-Based Dose Retest to Confirm Inhibitors of Cancer Stem Cells. [Related pubchem assays (depositor defined):AID2717, AID2721]; assay type: functional, Homo sapiens; settings: Homo sapiens
# Cytochrome P450 2C9 = Cytochrome P450 2C9 (Homo sapiens, UniProt P11712)
# Cytochrome P450 2C9, sequence (P11712 whole entry): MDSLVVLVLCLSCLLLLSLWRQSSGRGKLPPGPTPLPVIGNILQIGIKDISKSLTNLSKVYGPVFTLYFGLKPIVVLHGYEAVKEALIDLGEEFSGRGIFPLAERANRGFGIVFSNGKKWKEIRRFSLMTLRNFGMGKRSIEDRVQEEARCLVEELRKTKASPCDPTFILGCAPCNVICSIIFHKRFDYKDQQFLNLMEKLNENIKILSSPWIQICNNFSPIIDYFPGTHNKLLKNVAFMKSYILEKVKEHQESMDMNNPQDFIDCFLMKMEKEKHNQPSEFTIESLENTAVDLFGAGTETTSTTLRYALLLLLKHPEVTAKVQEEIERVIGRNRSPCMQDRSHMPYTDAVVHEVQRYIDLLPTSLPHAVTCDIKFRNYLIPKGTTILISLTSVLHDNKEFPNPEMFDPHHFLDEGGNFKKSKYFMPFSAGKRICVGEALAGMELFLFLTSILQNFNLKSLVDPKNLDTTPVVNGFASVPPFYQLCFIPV
# Cytochrome P450 1A2 = biological target: T2, Cytochrome P450 1A2 (Homo sapiens, UniProt P05177);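 also: PubChem cytochrome P450 panel assay, CYP1A2 panel member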
# T2 sequence (P05177 whole entry): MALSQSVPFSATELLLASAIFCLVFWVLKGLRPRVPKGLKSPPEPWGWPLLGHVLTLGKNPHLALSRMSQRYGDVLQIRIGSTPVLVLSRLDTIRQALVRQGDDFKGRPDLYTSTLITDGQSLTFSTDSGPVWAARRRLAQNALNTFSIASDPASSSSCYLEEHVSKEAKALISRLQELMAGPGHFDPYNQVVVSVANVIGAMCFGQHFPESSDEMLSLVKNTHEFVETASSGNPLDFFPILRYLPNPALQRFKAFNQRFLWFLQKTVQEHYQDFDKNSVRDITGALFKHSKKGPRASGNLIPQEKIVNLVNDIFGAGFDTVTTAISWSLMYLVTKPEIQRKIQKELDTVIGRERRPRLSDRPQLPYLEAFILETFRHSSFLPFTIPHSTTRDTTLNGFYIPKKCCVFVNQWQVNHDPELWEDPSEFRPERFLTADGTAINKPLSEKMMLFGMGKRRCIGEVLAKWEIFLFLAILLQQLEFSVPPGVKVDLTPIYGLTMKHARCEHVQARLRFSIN
# [11] = biological target: T3, Replicative DNA helicase DnaB (Mycobacterium tuberculosis, UniProt P9WMR3); experiment: DnaB intein splicing inhibitors, dose response, biochemical, cell-free fluorescence (AID 449749); assay type: functional
# T3 sequence (P9WMR3 whole entry): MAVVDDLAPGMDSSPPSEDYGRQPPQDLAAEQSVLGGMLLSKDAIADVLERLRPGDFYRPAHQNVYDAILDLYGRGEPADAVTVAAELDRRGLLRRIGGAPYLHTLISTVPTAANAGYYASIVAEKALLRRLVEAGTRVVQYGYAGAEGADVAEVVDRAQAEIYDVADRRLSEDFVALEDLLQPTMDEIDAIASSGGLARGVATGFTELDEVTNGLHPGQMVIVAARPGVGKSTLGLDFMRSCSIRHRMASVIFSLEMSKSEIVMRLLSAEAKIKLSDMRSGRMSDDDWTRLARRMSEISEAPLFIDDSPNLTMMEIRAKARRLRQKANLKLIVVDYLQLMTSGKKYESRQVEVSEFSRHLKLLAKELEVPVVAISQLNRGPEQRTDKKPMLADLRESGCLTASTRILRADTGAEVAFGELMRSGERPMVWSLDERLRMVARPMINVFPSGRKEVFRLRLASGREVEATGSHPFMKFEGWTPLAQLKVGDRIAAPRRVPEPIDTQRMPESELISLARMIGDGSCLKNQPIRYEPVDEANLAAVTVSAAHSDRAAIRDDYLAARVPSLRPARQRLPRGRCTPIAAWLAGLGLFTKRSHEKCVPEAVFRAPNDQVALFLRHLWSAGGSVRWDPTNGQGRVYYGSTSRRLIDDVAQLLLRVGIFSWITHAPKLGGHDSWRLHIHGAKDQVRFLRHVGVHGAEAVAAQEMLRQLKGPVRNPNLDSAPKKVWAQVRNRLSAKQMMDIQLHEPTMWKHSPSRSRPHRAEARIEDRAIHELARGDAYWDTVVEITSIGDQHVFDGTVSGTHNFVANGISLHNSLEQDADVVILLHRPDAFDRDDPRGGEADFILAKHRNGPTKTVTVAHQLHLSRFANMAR
# Protein RecA = biological target: T4, Protein RecA (Mycobacterium tuberculosis, UniProt P9WHJ3); experiment: Fluorescence Cell-Free Homogeneous Dose Retest to Identify Inhibitors of RecA-Intein Splicing Activity. [Related pubchem assays (depositor defined):AID2097, AID2223, AID489010, AID492950]; assay type: functional
# T4 sequence (P9WHJ3 whole entry): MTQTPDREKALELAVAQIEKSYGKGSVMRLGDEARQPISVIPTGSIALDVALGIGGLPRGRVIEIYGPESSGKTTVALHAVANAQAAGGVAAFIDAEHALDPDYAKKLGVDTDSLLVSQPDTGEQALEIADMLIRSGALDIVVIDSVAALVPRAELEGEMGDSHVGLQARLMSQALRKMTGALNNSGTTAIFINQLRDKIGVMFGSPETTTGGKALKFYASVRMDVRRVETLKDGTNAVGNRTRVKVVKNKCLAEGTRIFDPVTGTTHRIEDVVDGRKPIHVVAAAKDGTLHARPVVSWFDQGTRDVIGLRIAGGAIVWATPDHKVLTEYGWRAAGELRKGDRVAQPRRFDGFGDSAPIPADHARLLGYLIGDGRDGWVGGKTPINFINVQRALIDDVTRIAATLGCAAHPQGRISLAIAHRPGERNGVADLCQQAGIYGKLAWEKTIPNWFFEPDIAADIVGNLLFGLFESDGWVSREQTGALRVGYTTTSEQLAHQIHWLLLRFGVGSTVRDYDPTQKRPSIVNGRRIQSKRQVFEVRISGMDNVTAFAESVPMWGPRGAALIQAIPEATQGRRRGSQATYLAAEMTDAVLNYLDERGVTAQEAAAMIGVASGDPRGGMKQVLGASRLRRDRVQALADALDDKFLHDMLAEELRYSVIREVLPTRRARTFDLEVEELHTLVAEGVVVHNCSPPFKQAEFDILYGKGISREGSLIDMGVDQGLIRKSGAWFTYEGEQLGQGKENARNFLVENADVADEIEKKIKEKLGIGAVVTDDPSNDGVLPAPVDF
# Cytochrome P450 2C19 = Cytochrome P450 2C19 (Homo sapiens, UniProt P33261); experiment: Cytochrome panel assay with activity outcomes. Panel member name: p450-cyp2c19 Compounds with AC50 equal or less than 10 uM are considered active; assay type: functional; settings: read-out: AC50
# Cytochrome P450 2C19, sequence (P33261 whole entry): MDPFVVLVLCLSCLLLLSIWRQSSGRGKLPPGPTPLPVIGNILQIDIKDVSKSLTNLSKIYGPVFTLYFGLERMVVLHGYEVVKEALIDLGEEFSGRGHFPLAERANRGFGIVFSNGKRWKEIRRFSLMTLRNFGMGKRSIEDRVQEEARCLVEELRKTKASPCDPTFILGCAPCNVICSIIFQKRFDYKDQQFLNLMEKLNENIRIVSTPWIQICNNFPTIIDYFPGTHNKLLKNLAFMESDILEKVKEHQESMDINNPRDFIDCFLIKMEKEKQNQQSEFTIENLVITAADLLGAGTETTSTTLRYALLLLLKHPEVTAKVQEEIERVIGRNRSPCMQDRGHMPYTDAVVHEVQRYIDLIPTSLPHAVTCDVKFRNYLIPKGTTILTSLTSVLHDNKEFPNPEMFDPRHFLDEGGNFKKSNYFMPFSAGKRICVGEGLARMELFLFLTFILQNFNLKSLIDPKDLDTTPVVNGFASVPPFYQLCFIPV
# P388/ADR = experiment: cells; assay type: functional; settings: Mus musculus
compound,measurement,setting,value
COc1ccc(/C=N/NC(=O)c2ccoc2C)cc1O,EC50,cells [1],6.49 µM (active)
same,CC50,[2],18.5 µM (active)
same,EC50,cells [3],> 350 µM (not active)
same,IC50,Large T antigen,9.6 µM (active)
same,AC50,[4],1.2 µM (active)
O=c1c2ccccc2nc2n1C(CSCc1ccc(Cl)cc1Cl)CS2 (centres undefined),AC50,[5],3.48 µM (active)
same,AC50,[6],1.45 µM (active)
same,AC50,[7],46.2 µM (active)
O=C(/N=C1/N=C2C=CC(Br)=CN2Cc2ccccc21)c1ccc([N+](=O)[O-])cc1[N+](=O)[O-],IC50,Protein skinhead-1,28.3 µM (active)
same,EC50,[8],> 60 µM (not active)
same,EC50,[9],1.39 µM (active)
Nc1cnc(Nc2ccc(Br)cc2)nc1N,IC50,Large T antigen,22.3 µM (active)
O=C1c2ccccc2NC2(CCCCC2)N1c1ccc(O)cc1,IC50,Large T antigen,12.5 µM (active)
CC(=O)c1ccc(N2CCN(c3ccc(S(=O)(=O)NCCCN(C)C)cc3[N+](=O)[O-])CC2)cc1,AC50,[5],36.7 µM (active)
same,AC50,[6],3.78 µM (active)
same,AC50,[7],27.3 µM (active)
same,AC50,[10],1.41 µM (active)
CCOC(=O)C(/C=N/c1ncccc1C)=C(/O)OCC,AC50,Cytochrome P450 2C9,inconclusive
O=C1COc2ccccc2CN1,AC50,Cytochrome P450 2C9,inconclusive
O=S(=O)(c1cccc2c(S(=O)(=O)N3CCCC3)cccc12)N1CCCC1,IC50,Protein skinhead-1,> 100 µM (inactive)
FC(F)(F)c1ccccc1-c1ccc2ncnc(NC3CCNCC3)c2c1,AC50,Cytochrome P450 1A2,20 µM (inconclusive)
same,AC50,Cytochrome P450 2C9,inconclusive
CCOc1ccc(CN(C)c2ccc(S(=O)(=O)N3CCN(C)CC3)cc2[N+](=O)[O-])cc1OC,AC50,[5],5.91 µM (active)
same,AC50,[6],3.38 µM (active)
same,AC50,[7],43 µM (active)
O=C(CSc1cccc2cccnc12)N/N=C/c1ccc(O)cc1,IC50,Large T antigen,11.6 µM (active)
CC(C)NC(=N)NC(=N)Nc1ccc(Cl)cc1 [PROGUANIL HYDROCHLORIDE],AC50,[5],0.403 µM (active)
same,AC50,[6],0.37 µM (active)
COC(=O)C1=C(C)N=c2s/c(=C/c3cccs3)c(=O)n2C1c1ccc(F)cc1 (centres undefined),IC50,Protein skinhead-1,> 100 µM (inactive)
ClCCN(CCCl)c1ccc(C=Cc2ccncn2)cc1,IC50,Protein skinhead-1,> 100 µM (inactive)
COC(=O)c1ccc(Cl)c(NC(=O)c2ccc(-c3ccccc3)cc2)c1,AC50,Cytochrome P450 2C9,inconclusive
Cc1noc(C)c1-c1cc(NCc2cccnc2)ncn1,AC50,Cytochrome P450 2C9,inconclusive
COc1ccc([N+](=O)[O-])cc1NC(=O)C(C)OC(=O)CSC(C)C(=O)Nc1cc(C)on1 (centres undefined),IC50,Protein skinhead-1,> 100 µM (inactive)
O=C(O)[C@H]1CCCC[C@H]1C(=O)Nc1ccc(Nc2ccccc2)cc1,IC50,Large T antigen,9.46 µM (active)
COc1ccc2oc(C(F)(F)C(F)F)cc(=O)c2c1,IC50,Protein skinhead-1,> 100 µM (inactive)
CCc1ccc(NC(=O)C(=O)N/N=C(\C)CC(=O)Nc2ccccn2)cc1,AC50,[11],> 380 µM (inactive)
same,EC50,Protein RecA,> 380 µM (inactive)
Cc1cc(C(=O)N/N=C/c2cccc([N+](=O)[O-])c2)c(C)o1,AC50,Cytochrome P450 2C19,22.4 µM (inconclusive)
same,AC50,Cytochrome P450 2C9,inconclusive
CCOC(=O)Nc1nc(-c2ccc(Cl)cc2Cl)cs1,IC50,Protein skinhead-1,21.4 µM (active)
N#Cc1ccc(-c2nc3c4ccccc4ccn3c2Cc2ccccc2C(F)(F)F)cc1,IC50,Protein skinhead-1,> 100 µM (inactive)
Cc1onc(-c2ccccc2)c1-c1nc2cc(Cl)ccc2c(=O)o1,AC50,[11],1.53 µM (active)
same,EC50,Protein RecA,158 µM (active)
C=CSc1sc(Cl)c(N2CCOCC2)c1[N+](=O)[O-],AC50,[11],11.1 µM (active)
same,EC50,Protein RecA,54.6 µM (active)
Cc1cc2c(c3oc(C4(C)OC4C4OC4C)cc(=O)c13)C(=O)c1c(O)c(C3CC(C)(N(C)C)C(O)C(C)O3)cc(C3CC(N(C)C)C(O)C(C)O3)c1C2=O (centres undefined),GI50,P388/ADR,0.0025 µM (active)
O=Cc1coc2c(ccc3ccccc32)c1=O,IC50,Large T antigen,9.01 µM (active)
COc1cc(/C=C/C(=O)OCC(=O)N2CC(=O)Nc3ccccc32)ccc1O,IC50,Large T antigen,12.6 µM (active)
CCOC(=O)c1c(C)[nH]c(C(=O)COC(=O)c2oc3ccc(OC)cc3c2C)c1C,IC50,Protein skinhead-1,> 100 µM (inactive)
